Data taken from ChEMBL document CHEMBL1156164, “Synthesis of 26-hydroxy-22-oxocholestanic frameworks from diosgenin and hecogenin and their in vitro antiproliferative and apoptotic activity on human cervical cancer CaSki cells” (Bioorg Med Chem, 2010).
Active and inactive are the calls of the source. The rule behind the calls is not given here.

Key:
Ca-Ski [1] = experiment: Induction of apoptosis in human CaSki cells assessed as fragmentation of genomic DNA at IC50 after 24 hrs by TUNEL assay; type: functional, cell-based
PBMC [2] = experiment: Effect on enriched human PBMC proliferation assessed as proliferating cells at IC50 after 72 hrs using CSFE labeling by flow cytometry; type: functional
Ca-Ski [3] = experiment: Cell cycle arrest in human CaSki cells assessed as DNA accumulation at sub G1 phase at IC50 after 24 hrs using propidium iodide staining by flow cytometry; type: functional, cell-based
Ca-Ski [4] = experiment: Induction of necrosis of human CaSki cells assessed as LDH accumulation in culture supernatant at IC50 after 24 hrs by INT assay; type: functional
Ca-Ski [5] = experiment: Cell cycle arrest in human CaSki cells assessed as DNA accumulation at G2/M phase at IC50 after 24 hrs using propidium iodide staining by flow cytometry; type: functional, cell-based
Ca-Ski [6] = experiment: Antiproliferative activity against human CaSki cells after 24 hrs using crystal violet staining by ELISA; type: functional, cell-based
[7] = Induction of necrosis of PHA-activated human lymphocytes assessed as LDH accumulation in culture supernatant at IC50 after 72 hrs by INT assay; type: cell-based; conditions: lymphocyte
[8] = Cytotoxicity against human fibroblast cells at IC50 after 24 hrs by crystal violet staining; type: cell-based
Ca-Ski [9] = experiment: Induction of apoptosis in human CaSki cells assessed as appearance of apoptotic bodies at IC50 after 24 hrs by DAPI staining; type: functional, cell-based
Ca-Ski [10] = experiment: Effect on human CaSki cell morphology assessed as formation of large cells at IC50 after 24 hrs by microscopy; type: functional, cell-based
Ca-Ski [11] = experiment: Induction of apoptosis in human CaSki cells assessed as increase in active caspase-3 expression at IC50 after 24 hrs by immunocytochemistry; type: functional, cell-based
Ca-Ski [12] = experiment: Cell cycle arrest in human CaSki cells assessed as DNA accumulation at G1 phase at IC50 after 24 hrs using propidium iodide staining by flow cytometry; type: functional, cell-based
Ca-Ski [13] = experiment: Effect on human CaSki cell morphology assessed as formation of non-reflective small inclusion bodies at IC50 after 24 hrs by microscopy; type: functional, cell-based
Ca-Ski [14] = experiment: Cell cycle arrest in human CaSki cells assessed as DNA accumulation at S phase at IC50 after 24 hrs using propidium iodide staining by flow cytometry; type: functional, cell-based
PBMC [15] = experiment: Induction of enriched human PBMC proliferation assessed as non-proliferating cells at IC50 after 72 hrs using CSFE labeling by flow cytometry; type: functional
Ca-Ski [16] = experiment: Effect on human CaSki cell morphology assessed as formation of small spherical cells at IC50 after 24 hrs by microscopy; type: functional, cell-based
Ca-Ski [17] = experiment: Induction of apoptosis in human CaSki cells assessed as chromatin condensation at IC50 after 24 hrs by DAPI staining; type: functional, cell-based

SMILES	Activity (Ca-Ski [1])	Activity (PBMC [2]) [%]	Activity (Ca-Ski [3])	Activity (Ca-Ski [4])	Activity (Ca-Ski [5])	Activity (Ca-Ski [6])	IC50 (Ca-Ski [6]) [µM]	Activity [7]	Activity [8]	Activity (Ca-Ski [9])	Activity (Ca-Ski [10])	Activity (Ca-Ski [11])	Activity (Ca-Ski [12])	Activity (Ca-Ski [13])	Activity (Ca-Ski [14])	Activity (PBMC [15]) [%]	Activity (Ca-Ski [16])	Activity (Ca-Ski [17])
CC(=O)O[C@H]1CC[C@@]2(C)[C@@H](CC[C@@H]3[C@@H]2CC(=O)[C@]2(C)[C@@H]([C@H](C)C(=O)CC[C@@H](C)CO)[C@@H](OC(C)=O)C[C@@H]32)C1	Active	63.68	Active	28%	inactive	Dose-dependent effect	188	Not Active	18%	Active	Active	Active	inactive	Active	Active	36.34	–	–
CC(=O)O[C@H]1CC[C@@]2(C)C(=CC[C@H]3[C@@H]4C[C@H](OC(C)=O)[C@H]([C@H](C)C(=O)CC[C@@H](C)CO)[C@@]4(C)CC[C@@H]32)C1	inactive	76.15	Active	inactive	Active	Dose-dependent effect	47.1	Not Active	Not Active	–	–	Active	Active	–	Active	23.85	Active	Active
